Assay results published in patent US20220033407A1, “N-(pyridin-2-ylsulfonyl)cyclopropanecarboxamide Derivatives and their Use in the Treatment of Disease” (NOVARTIS AG, priority 2018, published 2022).

Molecular target: T1, delF508-CFTR-HRP (Homo sapiens, UniProt P13569, DEL508-508)
T1 construct: expressed in transfected cells
Assay: Measurement of delF508-CFTR-HRP surface expression in CFBE41o- cells (HRP luminescence);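 on DelF508-CFTR-HRP Amax %: percent efficacy relative to a reference CFTR corrector compound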
Type: cell-based
Conditions: for Emax: CFBE41o-, read-out: DelF508-CFTR-HRP Amax %; for EC50: mean of at least two replicates
In short: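 EC50 derived by logistic regression of triplicate surface-HRP luminescence, plate-normalized to the lowest-concentration median. Doxycycline (500 ng/mL, 48 h) induced delF508-CFTR-HRP in CFBE41o- cells; compounds then applied 24 h at 37° C, 10 μM top, 3-fold over 10 points.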

T1 sequence (P13569 with tags, fused parts or gaps DEL508-508): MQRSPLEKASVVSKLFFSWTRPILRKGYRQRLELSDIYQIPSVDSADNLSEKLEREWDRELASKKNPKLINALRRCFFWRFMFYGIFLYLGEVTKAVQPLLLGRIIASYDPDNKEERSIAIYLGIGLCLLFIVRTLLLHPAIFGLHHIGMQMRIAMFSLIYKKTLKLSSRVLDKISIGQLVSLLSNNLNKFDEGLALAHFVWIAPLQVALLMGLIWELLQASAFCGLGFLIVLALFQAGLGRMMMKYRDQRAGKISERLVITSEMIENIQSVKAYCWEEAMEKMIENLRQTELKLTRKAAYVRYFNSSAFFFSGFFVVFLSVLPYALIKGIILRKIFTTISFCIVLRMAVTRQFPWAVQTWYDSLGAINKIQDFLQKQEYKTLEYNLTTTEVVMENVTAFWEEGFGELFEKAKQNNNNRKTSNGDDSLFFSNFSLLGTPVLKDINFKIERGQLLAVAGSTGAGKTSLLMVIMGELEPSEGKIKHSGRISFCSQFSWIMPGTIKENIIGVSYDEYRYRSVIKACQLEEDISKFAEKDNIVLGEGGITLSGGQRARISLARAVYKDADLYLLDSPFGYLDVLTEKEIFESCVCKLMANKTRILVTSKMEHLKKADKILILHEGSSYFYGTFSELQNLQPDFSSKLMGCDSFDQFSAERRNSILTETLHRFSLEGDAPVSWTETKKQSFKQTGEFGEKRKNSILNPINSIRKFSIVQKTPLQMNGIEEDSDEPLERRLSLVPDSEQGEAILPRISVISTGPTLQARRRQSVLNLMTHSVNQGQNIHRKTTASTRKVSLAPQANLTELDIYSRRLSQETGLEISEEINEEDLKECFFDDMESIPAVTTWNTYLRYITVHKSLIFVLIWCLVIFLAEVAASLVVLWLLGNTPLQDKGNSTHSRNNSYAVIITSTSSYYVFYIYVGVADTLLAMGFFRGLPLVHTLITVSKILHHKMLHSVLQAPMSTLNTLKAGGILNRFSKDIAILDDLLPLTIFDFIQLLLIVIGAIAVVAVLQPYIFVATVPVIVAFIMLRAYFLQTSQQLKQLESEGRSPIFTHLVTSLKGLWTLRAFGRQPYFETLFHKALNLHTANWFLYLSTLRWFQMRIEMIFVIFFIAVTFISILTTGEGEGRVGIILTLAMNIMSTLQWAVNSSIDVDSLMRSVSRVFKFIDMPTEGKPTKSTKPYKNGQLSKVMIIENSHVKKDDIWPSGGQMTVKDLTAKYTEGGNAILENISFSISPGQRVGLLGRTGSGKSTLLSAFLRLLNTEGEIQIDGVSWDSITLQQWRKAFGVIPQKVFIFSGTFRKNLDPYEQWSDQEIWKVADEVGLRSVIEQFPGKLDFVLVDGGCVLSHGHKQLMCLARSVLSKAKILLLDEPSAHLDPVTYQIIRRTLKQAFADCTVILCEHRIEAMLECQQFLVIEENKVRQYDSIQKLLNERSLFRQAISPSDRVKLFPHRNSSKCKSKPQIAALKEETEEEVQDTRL

| Emax [%] | EC50 [nM] | DelF508-CFTR-HRP Amax % [%] | SMILES |
| --- | --- | --- | --- |
| 755 | 550 | – | C[C@]1(O)CCN(c2cccc(S(=O)(=O)NC(=O)C3(Oc4cc(Cl)ccc4N4CCC5(CC4)CC5)CC3)n2)C1 [Example 9-28, (S)-1-(5-Chloro-2-(6-azaspiro[2.5]octan-6-yl)phenoxy)-N-((6-(3-hydroxy-3-methylpyrrolidin-1-yl)pyridin-2-yl)sulfonyl)cyclopropanecarboxamide] |
| 789 | 1470 | – | CC(C)[C@H](CO)Nc1cccc(S(=O)(=O)NC(=O)C2(Oc3cc(Cl)ccc3N3CCC(C)(C)CC3)CC2)n1 [Example 9-38, (R)-1-(5-Chloro-2-(4,4-dimethylpiperidin-1-yl)phenoxy)-N-((6-((1-hydroxy-3-methylbutan-2-yl)amino)pyridin-2-yl)sulfonyl)cyclopropane-1-carboxamide] |
| 366 | 600 | – | O=C(NS(=O)(=O)c1cccc(N2CCC(O)(C(F)(F)F)CC2)n1)C1(Oc2cc(Cl)ccc2N2CC3(CCCCC3)C2)CC1 [Example 9-2, 1-(5-chloro-2-(2-azaspiro[3.5]nonan-2-yl)phenoxy)-N-((6-(4-hydroxy-4-(trifluoromethyl)piperidin-1-yl)pyridin-2-yl)sulfonyl)cyclopropanecarboxamide] |
| – | 570 | 726.4 | CC1(C)CCN(c2ccc(Cl)cc2OC2(C(=O)NS(=O)(=O)c3cccc(N4CCC(C)(O)C4)n3)CC2)CC1 (single isomer, unassigned) [Example 9-39-1, 1-(5-Chloro-2-(4,4-dimethylpiperidin-1-yl)phenoxy)-N-((6-(3-hydroxy-3-methylpyrrolidin-1-yl)pyridin-2-yl)sulfonyl)cyclopropane-1-carboxamide] |
| 285 | 2550 | – | Cc1ccc(OC2CCCC2)c(OC2(C(=O)NS(=O)(=O)c3cccc(N4CC[C@H](O)C4)n3)CC2)c1 [Example 6-13, (S)-1-(2-(cyclopentyloxy)-5-methylphenoxy)-N-((6-(3-hydroxypyrrolidin-1-yl)pyridin-2-yl)sulfonyl)cyclopropanecarboxamide] |
| 357 | 590 | – | CC1(NC(=O)OC(C)(C)C)CCN(c2cccc(S(=O)(=O)NC(=O)C3(Oc4cc(Cl)ccc4C4CC5(CCC5)C4)CC3)n2)CC1 [Example 7-7, Tert-butyl (1-(6-(N-(1-(5-chloro-2-(spiro[3.3]heptan-2-yl)phenoxy)cyclopropanecarbonyl)sulfamoyl)pyridin-2-yl)-4-methylpiperidin-4-yl)carbamate] |
| – | 1920 | 367.4 | CC1(C)CCN(c2ccc(Cl)cc2OC2(C(=O)NS(=O)(=O)c3cccc(N4CCCC(C)(O)C4)n3)CC2)CC1 (single isomer, unassigned) [Example 9-43-2, 1-(5-Chloro-2-(4,4-dimethylpiperidin-1-yl)phenoxy)-N-((6-(3-hydroxy-3-methylpiperidin-1-yl)pyridin-2-yl)sulfonyl)cyclopropane-1-carboxamide] |
| 361 | 2540 | – | O=C(NS(=O)(=O)c1cccc(N2CC[C@H](O)C2)n1)C1(Oc2cc(Cl)ccc2-c2ccc3c(c2)OC(F)(F)O3)CC1 [Example 5-15, (S)-1-(5-Chloro-2-(2,2-difluorobenzo[d][1,3]dioxol-5-yl)phenoxy)-N-((6-(3-hydroxypyrrolidin-1-yl)pyridin-2-yl)sulfonyl)cyclopropane-1-carboxamide] |
| 519 | 370 | – | Cc1ccc(OC2CCC(C(C)(C)C)CC2)c(OC2(C(=O)NS(=O)(=O)c3cccc(N4CCC(C)(O)CC4)n3)CC2)c1 (stereo not shown) [Example 6-5, 1-(2-((4-(tert-butyl)cyclohexyl)oxy)-5-methylphenoxy)-N-((6-(4-hydroxy-4-methylpiperidin-1-yl)pyridin-2-yl)sulfonyl)cyclopropanecarboxamide] |
| – | 1170 | 545.9 | CC1(C)CCN(c2ccc(Cl)cc2OC2(C(=O)NS(=O)(=O)c3cccc(N4CCCC(C)(O)C4)n3)CC2)CC1 (single isomer, unassigned) [Example 9-43-1, 1-(5-Chloro-2-(4,4-dimethylpiperidin-1-yl)phenoxy)-N-((6-(3-hydroxy-3-methylpiperidin-1-yl)pyridin-2-yl)sulfonyl)cyclopropane-1-carboxamide] |
| 720 | 2280 | – | CC1(C)CN(c2ccc(Cl)cc2OC2(C(=O)NS(=O)(=O)c3cccc(N4CC[C@H](O)C4)n3)CC2)C1 [Example 9-21, (S)-1-(5-Chloro-2-(3,3-dimethylazetidin-1-yl)phenoxy)-N-((6-(3-hydroxypyrrolidin-1-yl)pyridin-2-yl)sulfonyl)cyclopropanecarboxamide] |
| – | 960 | 93.6 | CC(C)(C)C1CCC(Nc2ccc(Cl)cc2OC2(C(=O)NS(=O)(=O)c3cccc(N4CC[C@H](O)C4)n3)CC2)CC1 (single isomer, unassigned) [Example 9-5-1] |
| 293 | 360 | – | COC(=O)C(C)(C)CN1CCN(c2cccc(S(=O)(=O)NC(=O)C3(Oc4cc(C)ccc4C4CCCCC4)CC3)n2)CC1 [Example 2-38, Methyl 3-(4-(6-(N-(1-(2-cyclohexyl-5-methylphenoxy)cyclopropanecarbonyl)sulfamoyl)pyridin-2-yl)piperazin-1-yl)-2,2-dimethylpropanoate] |
| 152 | 910 | – | CC(C)(C)C1CCN(c2ccc(Cl)cc2OC2(C(=O)NS(=O)(=O)c3cccc(N4CC[C@H](O)C4)n3)CC2)CC1 [Example 9-34, (S)-1-(2-(4-(Tert-butyl)piperidin-1-yl)-5-chlorophenoxy)-N-((6-(3-hydroxypyrrolidin-1-yl)pyridin-2-yl)sulfonyl)cyclopropanecarboxamide] |
| 428 | 210 | – | Cc1ccc(OC2CCC(C(C)(C)C)CC2)c(OC2(C(=O)NS(=O)(=O)c3cccc(N4CCC(O)(C(F)(F)F)CC4)n3)CC2)c1 (stereo not shown) [Example 6-8, 1-(2-((4-(tert-butyl)cyclohexyl)oxy)-5-methylphenoxy)-N-((6-(4-hydroxy-4-(trifluoromethyl)piperidin-1-yl)pyridin-2-yl)sulfonyl)cyclopropanecarboxamide] |
| 553 | 410 | – | O=C(NS(=O)(=O)c1cccc(N2CCC(O)(C(F)(F)F)CC2)n1)C1(Oc2cc(Cl)ccc2N2CCC3(CC2)CC3)CC1 [Example 9-31, 1-(5-Chloro-2-(6-azaspiro[2.5]octan-6-yl)phenoxy)-N-((6-(4-hydroxy-4-(trifluoromethyl)piperidin-1-yl)pyridin-2-yl)sulfonyl)cyclopropanecarboxamide] |

| SMILES | Emax [%] | EC50 [nM] | DelF508-CFTR-HRP Amax % [%] |
| --- | --- | --- | --- |
| CC(C)(C)OC1CCN(c2ccc(Cl)cc2OC2(C(=O)NS(=O)(=O)c3cccc(N4CC[C@H](O)C4)n3)CC2)C1 (stereo partly drawn) [Example 9-32, 1-(2-(3-(Tert-butoxy)pyrrolidin-1-yl)-5-chlorophenoxy)-N-((6-((S)-3-hydroxypyrrolidin-1-yl)pyridin-2-yl)sulfonyl)cyclopropanecarboxamide] | 485 | 1180 | – |
